Results reported in PubChem BioAssay AID248 (DTP/NCI, 2004).
Where “and” joins values, the source holds several entries; their conditions need not be identical. Equal entries are not always repeated. Inconclusive results and toxic doses are left out. Cut-off read from the data, not from the text of the source: active = T/C of 150% or more; inactive = T/C below 125%.

Test system: L1210 leukemia ip in BDF1 mice, survival T/C
Experiment: NCI In Vivo Anticancer Drug Screen. Data for tumor model L1210 Leukemia (intraperitoneal) in B6D2F1 (BDF1) mice
Conditions: higher = longer survival
Outline: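 In this screen, tumor-bearing mice given compound are compared to those given vehicle, and their survival values are reported as a treated-to-control quotient.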

[1] = endpoint: mean survival time, dose: 50.0 mg/kg/injection, schedule: Q01DX009 (ip), vehicle: saline with Tween-80
[2] = endpoint: mean survival time, dose: 100.0 mg/kg/injection, schedule: Q01DX001 (ip), vehicle: saline with Tween-80
[3] = endpoint: mean survival time, dose: 100.0 mg/kg/injection, schedule: Q04DX003 (ip), vehicle: saline with Tween-80
[4] = endpoint: mean survival time, dose: 200.0 mg/kg/injection, schedule: Q01DX001 (ip), vehicle: saline with Tween-80
[5] = endpoint: mean survival time, dose: 200.0 mg/kg/injection, schedule: Q04DX003 (ip), vehicle: saline with Tween-80
[6] = endpoint: mean survival time, dose: 400.0 mg/kg/injection, schedule: Q01DX009 (ip), vehicle: saline with Tween-80
[7] = endpoint: mean survival time, dose: 400.0 mg/kg/injection, schedule: Q04DX003 (ip), vehicle: saline with Tween-80
[8] = endpoint: mean survival time, dose: 50.0 mg/kg/injection, schedule: Q01DX001 (ip), vehicle: saline
[9] = endpoint: mean survival time, dose: 100.0 mg/kg/injection, schedule: Q01DX001 (ip), vehicle: saline
[10] = endpoint: mean survival time, dose: 200.0 mg/kg/injection, schedule: Q01DX001 (ip), vehicle: saline

Measured: T/C

C=CCc1ccc(OC(=O)Nc2ccc(SC)cc2)c(OC)c1
inactive: [1] 95 % of control and 87 % of control | [2] 101 % of control | endpoint: mean survival time, dose: 100.0 mg/kg/injection, schedule: Q04DX002 (ip), vehicle: saline with Tween-80 90 % of control and 91 % of control | [3] 94 % of control | [4] 98 % of control | endpoint: mean survival time, dose: 200.0 mg/kg/injection, schedule: Q04DX002 (ip), vehicle: saline with Tween-80 93 % of control and 100 % of control | [5] 91 % of control | endpoint: mean survival time, dose: 400.0 mg/kg/injection, schedule: Q01DX001 (ip), vehicle: saline with Tween-80 97 % of control | [6] 99 % of control and 89 % of control | endpoint: mean survival time, dose: 400.0 mg/kg/injection, schedule: Q04DX002 (ip), vehicle: saline with Tween-80 94 % of control and 88 % of control | [7] 96 % of control

CCCC(C)c1ccccc1O (stereo not given)
inactive: [3] 95 % of control

CC(=O)Nc1ccc2c(ccc3cccc[n+]32)c1
inactive: endpoint: mean survival time, dose: 10.0 mg/kg/injection, schedule: Q01DX001 (ip), vehicle: saline 93 % of control | endpoint: mean survival time, dose: 20.0 mg/kg/injection, schedule: Q01DX001 (ip), vehicle: saline 98 % of control

COc1ccc(/C=N/NC(=O)CCCCCCCCC(=O)N/N=C/c2ccc(OC)c(OC)c2)cc1OC
inactive: endpoint: mean survival time, dose: 25.0 mg/kg/injection, schedule: Q01DX009 (ip), vehicle: saline with Tween-80 98 % of control and 105 % of control | [1] 97 % of control and 101 % of control | [2] 95 % of control | endpoint: mean survival time, dose: 100.0 mg/kg/injection, schedule: Q04DX002 (ip), vehicle: saline 90 % of control | [3] 94 % of control | [4] 114 % of control | endpoint: mean survival time, dose: 200.0 mg/kg/injection, schedule: Q04DX002 (ip), vehicle: saline 97 % of control and 90 % of control | [5] 109 % of control | endpoint: mean survival time, dose: 400.0 mg/kg/injection, schedule: Q04DX002 (ip), vehicle: saline 101 % of control and 103 % of control | [7] 96 % of control

CC(C)CCS(=O)CCC(C)C
inactive: endpoint: mean survival time, dose: 100.0 mg/kg/injection, schedule: Q01DX009 (ip), vehicle: saline with Tween-80 96 % of control | [3] 105 % of control | endpoint: mean survival time, dose: 200.0 mg/kg/injection, schedule: Q01DX009 (ip), vehicle: saline with Tween-80 96 % of control | [5] 120 % of control | [6] 100 % of control | [7] 97 % of control

COC(=O)C[C@](O)(CCC(C)(C)O)C(=O)O[C@@H]1C(OC)=C[C@]23CCCN2CCc2cc4c(cc2[C@H]13)OCO4
inactive: endpoint: mean survival time, dose: 0.13 mg/kg/injection, schedule: Q#A X018 (ip), vehicle: saline 116 % of control | endpoint: mean survival time, dose: 0.25 mg/kg/injection, schedule: Q01DX009 (ip), vehicle: saline 104 % of control and 117 % of control and 124 % of control | endpoint: mean survival time, dose: 0.25 mg/kg/injection, schedule: Q01DX009 (ip), vehicle: water 118 % of control | endpoint: mean survival time, dose: 0.25 mg/kg/injection, schedule: Q03HX008 (ip), vehicle: saline 109 % of control | endpoint: mean survival time, dose: 0.25 mg/kg/injection, schedule: Q03HX016 (ip), vehicle: saline 113 % of control | endpoint: mean survival time, dose: 0.25 mg/kg/injection, schedule: Q03HX024 (ip), vehicle: saline 118 % of control | endpoint: mean survival time, dose: 0.25 mg/kg/injection, schedule: Q#A X018 (ip), vehicle: saline 114 % of control | endpoint: mean survival time, dose: 0.5 mg/kg/injection, schedule: Q01DX009 (oral), vehicle: saline 105 % of control | endpoint: mean survival time, dose: 0.5 mg/kg/injection, schedule: Q01DX009 (sc), vehicle: saline 110 % of control | endpoint: mean survival time, dose: 0.5 mg/kg/injection, schedule: Q03HX008 (ip), vehicle: saline 116 % of control | endpoint: mean survival time, dose: 0.5 mg/kg/injection, schedule: Q03HX016 (ip), vehicle: saline 107 % of control | endpoint: mean survival time, dose: 0.5 mg/kg/injection, schedule: Q03HX024 (ip), vehicle: saline 119 % of control | endpoint: mean survival time, dose: 0.5 mg/kg/injection, schedule: Q#A X018 (ip), vehicle: saline 122 % of control | endpoint: mean survival time, dose: 1.0 mg/kg/injection, schedule: Q01DX009 (oral), vehicle: saline 111 % of control | endpoint: mean survival time, dose: 1.0 mg/kg/injection, schedule: Q01DX009 (sc), vehicle: saline 121 % of control | endpoint: mean survival time, dose: 1.0 mg/kg/injection, schedule: Q03HX008 (ip), vehicle: saline 124 % of control | endpoint: mean survival time, dose: 2.0 mg/kg/injection, schedule: Q01DX001 (ip), vehicle: saline 113 % of control | endpoint: mean survival time, dose: 2.0 mg/kg/injection, schedule: Q01DX009 (oral), vehicle: saline 112 % of control | endpoint: mean survival time, dose: 2.0 mg/kg/injection, schedule: Q04DX003 (ip), vehicle: saline 105 % of control | endpoint: mean survival time, dose: 2.0 mg/kg/injection, schedule: Q08DX002 (ip), vehicle: saline 101 % of control | endpoint: mean survival time, dose: 2.0 mg/kg/injection, schedule: Q#A X018 (ip), vehicle: saline 113 % of control | endpoint: mean survival time, dose: 4.0 mg/kg/injection, schedule: Q01DX001 (ip), vehicle: saline 110 % of control | endpoint: mean survival time, dose: 4.0 mg/kg/injection, schedule: Q01DX009 (ip), vehicle: saline 119 % of control and 124 % of control | endpoint: mean survival time, dose: 4.0 mg/kg/injection, schedule: Q01DX009 (oral), vehicle: saline 98 % of control | endpoint: mean survival time, dose: 4.0 mg/kg/injection, schedule: Q01DX009 (sc), vehicle: saline 92 % of control | endpoint: mean survival time, dose: 4.0 mg/kg/injection, schedule: Q04DX003 (ip), vehicle: saline 123 % of control | endpoint: mean survival time, dose: 4.0 mg/kg/injection, schedule: Q08DX002 (ip), vehicle: saline 107 % of control | endpoint: mean survival time, dose: 8.0 mg/kg/injection, schedule: Q01DX001 (ip), vehicle: saline 117 % of control | endpoint: mean survival time, dose: 8.0 mg/kg/injection, schedule: Q04DX003 (ip), vehicle: saline 87 % of control | endpoint: mean survival time, dose: 8.0 mg/kg/injection, schedule: Q08DX002 (ip), vehicle: saline 107 % of control | endpoint: mean survival time, dose: 16.0 mg/kg/injection, schedule: Q08DX002 (ip), vehicle: saline 98 % of control | endpoint: median survival time, dose: 0.25 mg/kg/injection, schedule: Q01DX009 (ip), vehicle: saline 100 % of control and 101 % of control | endpoint: median survival time, dose: 0.5 mg/kg/injection, schedule: Q01DX009 (ip), vehicle: saline 105 % of control and 107 % of control | endpoint: median survival time, dose: 1.0 mg/kg/injection, schedule: Q01DX009 (ip), vehicle: saline 110 % of control and 115 % of control

C=CCOCC(O)COP(=O)(O)O (stereo not given) (tested in a mixture with another compound)
inactive: [8] 111 % of control and 107 % of control and 97 % of control | [9] 100 % of control and 107 % of control and 103 % of control | [10] 100 % of control and 97 % of control and 103 % of control | endpoint: mean survival time, dose: 400.0 mg/kg/injection, schedule: Q01DX001 (ip), vehicle: saline 94 % of control and 103 % of control

ClC1(Cl)C2CCC3C(CCC21)C3(Cl)Cl (stereo not given)
inactive: endpoint: mean survival time, dose: 100.0 mg/kg/injection, schedule: Q01DX009 (ip), vehicle: Klucel (hydroxypropylcellulose) (HPC) 100 % of control | endpoint: mean survival time, dose: 200.0 mg/kg/injection, schedule: Q01DX009 (ip), vehicle: Klucel (hydroxypropylcellulose) (HPC) 107 % of control | endpoint: mean survival time, dose: 400.0 mg/kg/injection, schedule: Q01DX009 (ip), vehicle: Klucel (hydroxypropylcellulose) (HPC) 107 % of control

COc1ccccc1C1CCCCC1OS(C)(=O)=O (stereo not given)
inactive: endpoint: mean survival time, dose: 100.0 mg/kg/injection, schedule: Q01DX001 (ip), vehicle: carboxymethylcellulose (CMC) 103 % of control | endpoint: mean survival time, dose: 200.0 mg/kg/injection, schedule: Q01DX001 (ip), vehicle: carboxymethylcellulose (CMC) 111 % of control | endpoint: mean survival time, dose: 400.0 mg/kg/injection, schedule: Q01DX001 (ip), vehicle: carboxymethylcellulose (CMC) 92 % of control

O=NN1CCOCC1
inactive: [8] 104 % of control | [9] 93 % of control | [10] 104 % of control

O=C(O)c1ccc2[nH]c(=O)c(=O)[nH]c2c1
inactive: endpoint: mean survival time, dose: 100.0 mg/kg/injection, schedule: Q04DX003 (ip), vehicle: Klucel (hydroxypropylcellulose) (HPC) 96 % of control | endpoint: mean survival time, dose: 200.0 mg/kg/injection, schedule: Q04DX003 (ip), vehicle: Klucel (hydroxypropylcellulose) (HPC) 101 % of control | endpoint: mean survival time, dose: 400.0 mg/kg/injection, schedule: Q04DX003 (ip), vehicle: Klucel (hydroxypropylcellulose) (HPC) 102 % of control
